The values below come from patent publication US20190307783A1, “USE OF ANTIVIRALS TO INHIBIT PROTOZOAN VIRUSES” (priority 2016, published 2019).

The conditions of data set [1]: animal models; cited from earlier work.
The next data set has as its system LbrLRV1. Nature of the data set: LRV1 inhibition in L. braziliensis strains bearing LRV1. It is filed as cell-based, Leishmania RNA virus 1 in Leishmania braziliensis. The conditions noted are these: Leishmania braziliensis. Here is the method:
(§1) For 2CMA, the EC50 was estimated to be ˜3 μM for LRV1 capsid inhibition, versus >100 μM for parasite growth (FIG. 11A), at least 30-fold selective. […] Several studies were carried out with L. braziliensis strains bearing LRV1 (12). The 2CMA EC50 for LbrLRV1 was similar to that seen with LgyLRV1 (˜3 μM); however, parasites were somewhat more susceptible to growth inhibition (EC50 50-100 μM). Because the available quantities of 7d2CMA were limiting and both compounds were similarly selective for L. guyanensis, we focused thereafter on 2CMA.
(§2) Most studies were performed using luciferase-expressing transfectants of L. guyanensis (MHOM/BR/78/M4147) described previously [LRV1^+ LgyM4147/SSU:IR2SAT-LUC(b)c3 and LRV^−LgyM4147/pX63HYG/SSU:IR2SAT-LUC(b)c4] (54); these lines are termed LgyLRV1^+ and LgyLRV1^−, respectively. Two strains of LRV1^+L. braziliensis were examined: LEM2780 (MHOM/BO/90/CS) and LEM3874 (MHOM/BO/99/IMT252 no. 3) (12). Parasites were grown in Schneider's media (Sigma Aldrich, St. Louis, Mo., USA) prepared according to the supplier's instructions with pH adjusted to 6.5 and supplemented with 0.76 mM hemin, 2 μg/mL biopterin, 50 U/mL penicillin, 50 μg/mL streptomycin, and 10% (vol/vol) heat-inactivated FBS. Cell concentrations were determined using a Coulter Counter ([…], Indianapolis, Ind., USA).

The subject of a further data set is L. guyanensis (LgyLRV1+). The data set can be described thus: Drug-inhibition test: growth of LgyLRV1+ parasites. The format is cell-based, Leishmania guyanensis.
Data set [2] relates to L. braziliensis strains bearing LRV1. The data set can be described thus: Growth inhibition of L. braziliensis strains bearing LRV1. It is filed as cell-based. Particulars: Leishmania braziliensis. As to the method:
as §1, §2

In data set [3] the test system is LRV1 (LgyLRV1 capsid levels). Particulars: from Kuhlmann, 2017; cited from earlier work.
For another data set, the system named is dsRNA LRV1 genome. Nature of the data set: Quantitative anti-dsRNA slot blots of LRV1 genome. The format is cell-based, Leishmania RNA virus 1 in Leishmania guyanensis. The conditions noted are these: LgyLRV1+.

Protocol for dsRNA LRV1 genome: RNA slot blot analysis was performed as described previously (36).

Take `C[C@@]1(O)[C@H](O)[C@@H](CO)O[C@H]1n1cnc2c(N)ncnc21` [2′C-methyadenosine, 2′-C-methyladenosine]: the Serum half-life in data set [1] was 18 min. The EC50 – broadly, the concentration giving half of the maximal effect – in the data set on LbrLRV1 was ~3 µM; in the data set with L. guyanensis (LgyLRV1+) (Leishmania guyanensis, L. guyanensis, relative cellular growth rate, titration, read-out: EC50 for parasite growth), > 100 µM; in data set [2], 50 to 100 µM; in the data set on dsRNA LRV1 genome, ~1 µM. Besides, in the data set on L. guyanensis (LgyLRV1+) (L. guyanensis at 100 μM, untreated 6.4 hours), the Population doubling time is 8.5 h. Moreover, the activity at 100 µM in the data set with L. guyanensis (LgyLRV1+) (Leishmania guyanensis, 48 h, LgyLRV1+, tested at 100 μM, growth after 2 days, read-out: Percent control (density)) was 72%. Besides, the inhibition (usually how much of the control response was suppressed) at 100 µM with L. guyanensis (LgyLRV1+) (Leishmania guyanensis, tested at 100 μM, read-out: Inhibition of parasite density) was determined as 30%. Moreover, in the data set on L. guyanensis (LgyLRV1+) (LgyLRV1+, tested at 100 μM, growth after 2 days), the “Density (cells/mL)” value is given as 1.22E+7 cells/mL. For the same compound, in data set [3], the “Concentration that eradicates / completely inhibits LRV1 replication” value was 10 µM.
